Patent US9850247B2 (Almac Discovery Limited, priority 2013, dated 2017)

How the values were obtained:
[1] = CLint estimates using human liver microsomes (Method 4); type: in vitro ADME; conditions: pH 7.4, 1 μM compound, read-out: Mics - CLint (HLM CLint)
How it was run: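 Depletion measured by LC/MS/MS in MRM mode over 2–50 min after starting reactions with 1 mM NADPH. Incubations used 0.5 mg/mL human liver microsomal protein, 1 μM compound, 0.1% DMSO, pH 7.4 phosphate buffer, 37 °C. ln peak area plotted against time; the gradient gave t½ and intrinsic clearance.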

[2] = system: phospho-cdc2 (Tyr15) in HT-29 cells; test: Effect on Cdc2 phosphorylation at Tyr15, Cell-Based ELISA Base Kit (Method 3); conditions: Homo sapiens, HT-29, 8 h, eight hours incubation, normalized to total cdc2, read-out: HT29 pCDC2 method 3
Method: Method 3: Determining the Effect of Compounds on the Cdc2 phosphorylation at Tyr15, using a Cell-Based ELISA Base Kit (R&D Systems, KCB001)
The colorectal cancer cell line, HT-29 was purchased from the ATCC and maintained in McCoy's 5 A medium (Gibco®, Life technologies) supplemented with 10% Foetal Calf Serum (FCS).
The cells were trypsinised and counted, 100 μL of 8000 cells was seeded into each well of a clear-bottom black 96-well microplate and incubated overnight to allow adherence to the surface, at 37° C. and 5% CO2 in a cell culture incubator.
Test compounds were formulated in DMSO and diluted in cell culture medium supplemented with FCS. Grow medium was removed from cells and medium containing compounds dilutions was added to each well. The plate was returned to the incubator for an additional eight hours of incubation at 37° C. and 5% CO2.
Post incubation cells were fixed by replacing the compounds supplemented medium with 100 μL of 4% formaldehyde in 1× phosphate buffered saline (PBS), for 20 minutes at room temperature. Formaldehyde solution was removed and cells were washed three times with PBS. The Cell-Based ELISA assay (R&D Systems) was carried out immediately after cell fixation or the plate was sealed and fixed cells were stored in PBS at 4° C. until required (no more than two weeks).
To continue the assay, PBS was removed and cells were washed 3 times for 5 minutes with 200 μL of 1× wash buffer. Each wash step was carried out with gentle shaking. Following washes, 100 μL of 0.6% H2O2 in 1× wash buffer (quenching buffer) was added, plate was sealed and incubated for 20 minutes at room temperature. Post incubation cells were washes 3 times for 5 minutes with 200 μL of 1× wash buffer, with gentle shaking. 100 μL of blocking buffer was added to each well, the plate was re-sealed and incubated at room temperature for 1 h.
After blocking, cells were washed as described above. A primary antibody mixture was prepared by mixing the two primary antibodies, a rabbit monoclonal antibody for phospho-cdc2 (Tyr15) (Cell Signaling, #4539) and mouse monoclonal antibody for total cdc2 p34 (Santa Cruz Biotechnology, sc-54), diluted 1:25 and 1:50 in blocking buffer, respectively. 60 μL of primary antibody mixture was added to each well, the plate was sealed and incubated overnight at 4° C.
The primary antibodies were removed and cells were washed as previously described. 100 μL of secondary antibody mixture, containing horseradish-peroxidase (HRP)-conjugated goat anti-rabbit IgG and alkaline phosphatase (AP)-conjugated goat anti-mouse IgG, diluted 1:100 in blocking buffer, was added to each test well. The plate was re-sealed and incubated for 2 hours at room temperature.
The secondary antibodies were removed and cells washed 2 times with wash buffer, followed by 2 washes with PBS. Each wash step was carried out for 5 minutes with gentle shaking. PBS was removed and 75 μL of fluorogenic substrate for HRP (substrate F1) added to each well. The plate was sealed and incubated for 1 h at room temperature, in the dark. 75 μL of fluorogenic substrate for AP (substrate F2) was added directly to each well, plate re-sealed and incubated for additional 40 minutes at room temperature, protected from direct light.
Following incubation fluorescence from each well was read at 600 nm (signal from substrate 1, phosphorylated protein) and then at 450 nm (signal from substrate 2, total protein).
The percentage of phospho-cdc2 was calculated compared to DMSO control, normalized to the total cdc2 and plotted versus the concentration of inhibitor, using GraphPad Prism. Data was fitted using a non-linear regression analysis and EC50 values generated.

Wee-1 kinase = molecular target: T1, Wee-1 kinase (Homo sapiens, UniProt P30291); test: Measurement of Wee-1 kinase activity (ADP-Glo luminescent kit); type: biochemical
T1 construct: purchased Invitrogen PV3817
T1 sequence (P30291 whole entry): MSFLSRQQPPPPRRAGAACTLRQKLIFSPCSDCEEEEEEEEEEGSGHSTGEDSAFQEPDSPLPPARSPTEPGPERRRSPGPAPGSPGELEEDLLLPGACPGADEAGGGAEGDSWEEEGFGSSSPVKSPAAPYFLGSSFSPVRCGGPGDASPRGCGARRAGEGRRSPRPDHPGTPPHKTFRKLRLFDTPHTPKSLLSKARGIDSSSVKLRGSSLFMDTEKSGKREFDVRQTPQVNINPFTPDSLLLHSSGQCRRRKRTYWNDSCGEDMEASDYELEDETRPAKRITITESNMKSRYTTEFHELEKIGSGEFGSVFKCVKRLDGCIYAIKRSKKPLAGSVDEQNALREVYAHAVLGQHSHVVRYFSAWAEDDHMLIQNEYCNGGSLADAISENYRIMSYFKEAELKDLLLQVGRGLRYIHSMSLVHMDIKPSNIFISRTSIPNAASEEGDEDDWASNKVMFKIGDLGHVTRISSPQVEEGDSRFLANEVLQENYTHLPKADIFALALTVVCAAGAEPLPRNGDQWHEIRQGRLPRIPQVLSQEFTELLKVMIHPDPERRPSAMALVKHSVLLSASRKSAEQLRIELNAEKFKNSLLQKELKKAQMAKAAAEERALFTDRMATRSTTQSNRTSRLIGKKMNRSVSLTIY
How it was run: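 ADP-Glo luminescence reads ADP made over 1 h at RT, after an aliquot of 30 μM ATP and 2.0 μg/mL poly(Lys,Tyr 4:1) substrate. Before that, the kinase sat 30 min with inhibitor in Tris-HCl/MgCl2 buffer with BSA and DTT. IC50 came from regression of percent inhibition.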

SMILES | microsomal CLint at 1 μM [1] [µL/min/mg] | EC50 [2] [µM] | IC50 (Wee-1 kinase) [µM]
CNCC(=O)N1CCN(c2ccc(Nc3ncc4c(n3)N(C)CN(c3c(Cl)cccc3Cl)C4=O)cc2)CC1 [Example 124, 3-(2,6-dichlorophenyl)-1-methyl-7-((4-(4-(2-(methylamino)acetyl)piperazin-1-yl)phenyl)amino)-2,3-dihydropyrimido[4,5-d]pyrimidin-4(1H)-one] | ≤ 15 | 0.1 to 1 | ≤ 0.01
COC[C@H]1CN(c2ccc(Nc3ncc4c(n3)N(C)CN(c3c(F)cccc3Cl)C4=O)cc2)CCN1 [Example 126, (R)-3-(2-chloro-6-fluorophenyl)-7-((4-(3-(methoxymethyl)piperazin-1-yl)phenyl)amino)-1-methyl-2,3-dihydropyrimido[4,5-d]pyrimidin-4(1H)-one] | ≤ 15 | ≥ 1 | 0.01 to 0.1
CN1CN(c2c(Cl)cccc2Cl)C(=O)c2cnc(Nc3ccc(N4CCNC[C@H]4CO)cc3)nc21 [Example 127, (S)-3-(2,6-dichlorophenyl)-7-((4-(2-(hydroxymethyl)piperazin-1-yl)phenyl)amino)-1-methyl-2,3-dihydropyrimido[4,5-d]pyrimidin-4(1H)-one] | ≤ 15 | ≥ 1 | ≤ 0.01
CN1CCN(c2ccc(Nc3ncc4c(n3)N(C)CN(c3c(Cl)cccc3Cl)C4=O)cc2)[C@H](CO)C1 [Example 128, (S)-3-(2,6-dichlorophenyl)-7-((4-(2-(hydroxymethyl)-4-methylpiperazin-1-yl)phenyl)amino)-1-methyl-2,3-dihydropyrimido[4,5-d]pyrimidin-4(1H)-one] | 15 to 50 | 0.1 to 1 | 0.01 to 0.1
C[C@@H]1CN(c2ccc(Nc3ncc4c(n3)N(C)CN(c3c(Cl)cccc3Cl)C4=O)cc2C(O)C(F)F)CCN1 (stereo partly drawn) [Example 134, 3-(2,6-dichlorophenyl)-7-((3-(2,2-difluoro-1-hydroxyethyl)-4-((R)-3-methylpiperazin-1-yl)phenyl)amino)-1-methyl-2,3-dihydropyrimido[4,5-d]pyrimidin-4(1H)-one] | ≤ 15 | 0.1 to 1 | ≤ 0.01
COC[C@H]1CN(c2ccc(Nc3ncc4c(n3)N(C)CN(c3c(Cl)cccc3Cl)C4=O)cc2CO)CCN1 [Example 135, (R)-3-(2,6-dichlorophenyl)-7-((3-(hydroxymethyl)-4-(3-(methoxymethyl)piperazin-1-yl)phenyl)amino)-1-methyl-2,3-dihydropyrimido[4,5-d]pyrimidin-4(1H)-one] | ≤ 15 | 0.1 to 1 | ≤ 0.01
CNCc1cc(Nc2ncc3c(n2)N(C)CN(c2c(Cl)cccc2Cl)C3=O)ccc1N1CCCC1 [Example 137, 3-(2,6-dichlorophenyl)-1-methyl-7-((3-((methylamino)methyl)-4-(pyrrolidin-1-yl)phenyl)amino)-2,3-dihydropyrimido[4,5-d]pyrimidin-4(1H)-one] | ≥ 50 | 0.1 to 1 | 0.01 to 0.1
C[C@@H]1CN(c2ccc(Nc3ncc4c(n3)N(C)CN(c3c(Cl)cccc3Cl)C4=O)cc2C(C)(C)O)CCN1 [Example 140, (R)-3-(2,6-dichlorophenyl)-7-((3-(2-hydroxypropan-2-yl)-4-(3-methylpiperazin-1-yl)phenyl)amino)-1-methyl-2,3dihydropyrimido [4,5-d]pyrimidin-4(1H)-one] | 15 to 50 | ≥ 1 | 0.01 to 0.1
CN1CN(c2c(Cl)cccc2Cl)C(=O)c2cnc(Nc3ccc(N4CCNCC4)c(CNCC(F)(F)F)c3)nc21 [Example 141, 3-(2,6-dichlorophenyl)-1-methyl-7-((4-(piperazin-1-yl)-3-(((2,2,2-trifluoroethyl)amino)methyl)phenyl)amino)-2,3-dihydropyrimido[4,5-d]pyrimidin-4(1H)-one] | ≤ 15 | ≥ 1 | ≤ 0.01
CNCc1cc(Nc2ncc3c(n2)N(C)CN(c2c(Cl)cccc2Cl)C3=O)ccc1N1CCN(C(C)=O)CC1 [Example 143, 7-((4-(4-acetylpiperazin-1-yl)-3-((methylamino)methyl)phenyl)amino)-3-(2,6-dichlorophenyl)-1-methyl-2,3-dihydropyrimido[4,5-d]pyrimidin-4(1H)-one] | ≤ 15 | ≥ 1 | ≤ 0.01
CC(=O)N1CCN(c2ccc(Nc3ncc4c(n3)N(C)CN(c3c(Cl)cccc3Cl)C4=O)cc2CN(C)C)CC1 [Example 144, 7-((4-(4-acetylpiperazin-1-yl)-3-((dimethylamino)methyl)phenyl)amino)-3-(2,6-dichlorophenyl)-1-methyl-2,3-dihydropyrimido[4,5-d]pyrimidin-4(1H)-one] | 15 to 50 | 0.1 to 1 | ≤ 0.01
CNCc1cc(Nc2ncc3c(n2)N(C)CN(c2c(Cl)cccc2Cl)C3=O)ccc1N1CCS(=O)(=O)CC1 [Example 146, 3-(2,6-dichlorophenyl)-7-((4-(1,1-dioxidothiomorpholino)-3-((methylamino)methyl)phenyl)amino)-1-methyl-2,3-dihydropyrimido[4,5-d]pyrimidin-4(1H)-one] | ≤ 15 | ≥ 1 | ≤ 0.01
CNCc1cc(Nc2ncc3c(n2)N(C)CN(c2c(Cl)cccc2Cl)C3=O)ccc1N1CCC(F)(F)CC1 [Example 147, 3-(2,6-dichlorophenyl)-7-((4-(4,4-difluoropiperidin-1-yl)-3-((methylamino)methyl)phenyl)amino)-1-methyl-2,3-dihydropyrimido[4,5-d]pyrimidin-4(1H)-one] | ≤ 15 | 0.1 to 1 | ≤ 0.01
CNCc1cc(Nc2ncc3c(n2)N(C)CN(c2c(Cl)cccc2Cl)C3=O)ccc1N1C[C@@H](C)O[C@@H](C)C1 [Example 148, 3-(2,6-dichlorophenyl)-7-((4-((2S,6R)-2,6-dimethylmorpholino)-3-((methylamino)methyl)phenyl)amino)-1-methyl-2,3-dihydropyrimido[4,5-d]pyrimidin-4(1H)-one] | 15 to 50 | 0.1 to 1 | ≤ 0.01
CN(C)Cc1cc(Nc2ncc3c(n2)N(C)CN(c2c(Cl)cccc2Cl)C3=O)ccc1N1CCS(=O)(=O)CC1 [Example 149, 3-(2,6-dichlorophenyl)-7-((3-((dimethylamino)methyl)-4-(1,1-dioxidothiomorpholino)phenyl)amino)-1-methyl-2,3-dihydropyrimido[4,5-d]pyrimidin-4(1H)-one] | ≤ 15 | 0.1 to 1 | ≤ 0.01
CN(C)Cc1cc(Nc2ncc3c(n2)N(C)CN(c2c(Cl)cccc2Cl)C3=O)ccc1N1CCC(F)(F)CC1 [Example 150, 3-(2,6-dichlorophenyl)-7-((4-(4,4-difluoropiperidin-1-yl)-3-((dimethylamino)methyl)phenyl)amino)-1-methyl-2,3-dihydropyrimido[4,5-d]pyrimidin-4(1H)-one] | ≥ 50 | 0.1 to 1 | 0.01 to 0.1
